Experimental data: ChEMBL document CHEMBL1146330, “Acyclic, orally bioavailable ketone-based cathepsin K inhibitors” (Bioorg Med Chem Lett, 2007)
Converted amounts (≈) assume the structure as drawn.

How the values were obtained:
Cathepsin B = Cathepsin B (Homo sapiens, UniProt P07858); experiment: Inhibition of human recombinant cathepsin B
Homo sapiens = species on record: Homo sapiens; experiment: Selectivity for human recombinant cathepsin K over human recombinant cathepsin L
Cathepsin K = target: T1, Cathepsin K (Homo sapiens, UniProt P43235); experiment: Inhibition of human recombinant cathepsin K
T1 sequence (P43235 whole entry): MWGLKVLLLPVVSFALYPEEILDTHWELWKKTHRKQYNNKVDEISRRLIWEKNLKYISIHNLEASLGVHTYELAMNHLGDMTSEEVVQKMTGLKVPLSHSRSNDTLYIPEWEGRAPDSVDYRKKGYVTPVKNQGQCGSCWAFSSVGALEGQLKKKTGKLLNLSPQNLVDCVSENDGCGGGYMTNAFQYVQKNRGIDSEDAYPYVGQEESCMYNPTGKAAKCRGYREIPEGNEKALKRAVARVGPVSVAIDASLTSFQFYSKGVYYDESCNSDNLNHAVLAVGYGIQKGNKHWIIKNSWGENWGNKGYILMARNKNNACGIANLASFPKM

[1] = Inhibition of human recombinant cathepsin L
Cathepsin S = Cathepsin S (Homo sapiens, UniProt P25774); experiment: Inhibition of human recombinant cathepsin S
Cathepsin S, sequence (P25774 whole entry): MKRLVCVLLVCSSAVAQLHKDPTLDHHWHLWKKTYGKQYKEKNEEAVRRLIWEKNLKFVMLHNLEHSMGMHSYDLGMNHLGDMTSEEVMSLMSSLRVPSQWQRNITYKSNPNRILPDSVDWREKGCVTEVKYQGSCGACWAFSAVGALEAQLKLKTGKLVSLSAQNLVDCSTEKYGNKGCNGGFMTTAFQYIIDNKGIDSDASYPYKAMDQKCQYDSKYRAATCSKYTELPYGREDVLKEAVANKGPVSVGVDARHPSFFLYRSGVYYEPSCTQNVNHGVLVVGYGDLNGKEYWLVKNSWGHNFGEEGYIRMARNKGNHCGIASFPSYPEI

[2] = Oral bioavailability in Han Wistar rat; assay type: ADME, organism-based; settings: in vivo
[3] = Volume of distribution at steady state in Han Wistar rat; assay type: ADME, organism-based; settings: in vivo, read-out: Vdss
[4] = Apparent permeability across MDCK cells; assay type: ADME, cell-based, Canis lupus familiaris; settings: dog
[5] = Total clearance in Han Wistar rat; assay type: ADME, organism-based; settings: in vivo
[6] = Solubility in fasted state simulated intestinal fluid at pH 6.8; assay type: physicochemical
[7] = Terminal elimination half life in iv dosed Han Wistar rat; assay type: ADME, organism-based; settings: in vivo

| Compound | IC50 (Cathepsin B) [nM] | Ratio IC50 (Homo sapiens) | IC50 (Cathepsin K) [nM] | IC50 [1] [nM] | IC50 (Cathepsin S) [nM] | bioavailability [2] [%] | Vd [3] [L/kg] | Papp [4] [×10⁻⁶ cm/s] | clearance [5] [mL/min/kg] | solubility [6] [µg/mL] | half-life [7] [min] |
| --- | --- | --- | --- | --- | --- | --- | --- | --- | --- | --- | --- |
| CCCC[C@H](NC(=O)O[C@H](Cn1ccc(-c2ccc(C(F)(F)F)cc2)n1)C(C)(C)C)C(=O)CNc1cccc(F)n1 | 68 | > 100 | 2.1 | > 250 | 19 | – | – | – | – | – | – |
| CCCC[C@H](NC(=O)O[C@H](Cn1ccc(-c2cccnc2)n1)C(C)(C)C)C(=O)CNS(=O)(=O)c1ccccn1 | 79 | – | 5.5 | 100 | 15 | – | – | – | – | – | – |
| CCCC[C@H](NC(=O)O[C@H](Cn1ccc(-c2ccc(C(F)(F)F)cc2)n1)C(C)(C)C)C(=O)CNS(=O)(=O)c1ccccn1 | 170 | – | 4 | > 250 | 35 | 21 | 1.8 | 16 | 26 | 41 (≈ 65.7 µM) | 120 |
| CC(C)(C)[C@@H](Cn1ccc(-c2ccc(C(F)(F)F)cc2)n1)OC(=O)NCC(=O)CNS(=O)(=O)c1ccccn1 | – | – | 65 | – | – | – | – | – | – | – | – |
| CCCC[C@H](NC(=O)O[C@H](Cn1ccc(-c2ccc(C(F)(F)F)cc2)n1)C(C)(C)C)C(=O)CNC(=O)N1CCOCC1 | – | – | > 250 | – | – | – | – | – | – | – | – |
| CCCC[C@H](NC(=O)O[C@H](Cn1ccc(-c2ccc(C(F)(F)F)cc2)n1)C(C)(C)C)C(=O)C(=O)Nc1ccn[nH]1 | 20 | – | 0.072 | 8.7 | 0.21 | 42 | 1.6 | 9.1 | – | 110 (≈ 196 µM) | 320 |
| CCCC[C@H](NC(=O)O[C@H](Cn1cnc2cc(Cl)c(Cl)cc21)C(C)(C)C)C(=O)CNS(=O)(=O)c1ccccn1 | 40 | – | 3.2 | 16 | 10 | 32 | 1.3 | 15 | 31 | 28 (≈ 46.8 µM) | 46 |
| C[C@H](NC(=O)O[C@H](Cn1ccc(-c2ccc(C(F)(F)F)cc2)n1)C(C)(C)C)C(=O)CNS(=O)(=O)c1ccccn1 | 310 | – | 18 | > 250 | 64 | 27 | 1.8 | 30 | 82 | 97 (≈ 167 µM) | 32 |
| CC(C)C[C@H](NC(=O)c1cc2ccccc2o1)C(=O)N[C@@H](C)C(=O)CNS(=O)(=O)c1ccccn1 | 59 | – | 7.5 | – | 20 | – | – | – | – | – | 33 |
| C[C@H](NC(=O)O[C@H](Cn1cnc2cc(Cl)c(Cl)cc21)C(C)(C)C)C(=O)CNS(=O)(=O)c1ccccn1 | 71 | – | 1.4 | 38 | 7.9 | – | – | – | – | – | – |
| C[C@H](NC(=O)O[C@H](Cn1ccc(C(F)(F)F)n1)C(C)(C)C)C(=O)CNS(=O)(=O)c1ccccn1 | – | – | 300 | – | – | – | – | – | – | – | – |
| CCCC[C@H](NC(=O)O[C@H](Cn1ccc(C(F)(F)F)n1)C(C)(C)C)C(=O)CNS(=O)(=O)c1ccccn1 | – | – | 32 | – | – | 20 | 0.46 | 34 | 21 | – | 24 |
| CCCC[C@H](NC(=O)O[C@H](Cn1cc(-c2ccc(C(F)(F)F)cc2)cn1)C(C)(C)C)C(=O)CNS(=O)(=O)c1ccccn1 | 72 | > 100 | 7.6 | 7100 | 26 | – | – | – | – | – | – |
| CCCC[C@H](NC(=O)O[C@H](Cn1ccc(-c2ccncc2)n1)C(C)(C)C)C(=O)CNS(=O)(=O)c1ccccn1 | 13 | – | 3.8 | 38 | 11 | 100 | 1.7 | 6.8 | 16 | 60 (≈ 108 µM) | 120 |
| CCCC[C@H](NC(=O)O[C@H](Cn1cnc(-c2ccc(C(F)(F)F)cc2)c1)C(C)(C)C)C(=O)CNS(=O)(=O)c1ccccn1 | 130 | > 100 | 6.4 | 1100 | 10 | 22 | 1.6 | 19 | 47 | 40 (≈ 64.1 µM) | 67 |
